Data from patent publication US8822510B2, “Substituted 3-phenyl-1,2,4-Oxadiazole compounds” (Bristol-Myers Squibb Company, priority 2010, dated 2014).

System: circulating lymphocytes
Experiment: Blood Lymphocyte Reduction Assay (BLR) in Rodents
Format: in vivo
Details: Lewis rats, oral, 10.0 mg/kg, vs vehicle group
Description: Lewis rats were dosed orally with test article (as a solution or suspension in the vehicle) or vehicle alone (polyethylene glycol 300, “PEG300”). Blood was drawn at 4 hr and 24 h by retro-orbital bleeding. Blood lymphocyte counts were determined on an ADVIA 120 Hematology Analyzer (Siemens Healthcare Diagnostics). The results were measured as a reduction in the percentage of circulating lymphocytes as compared to the vehicle treated group at the 4 hr and 24 hr measurement. The results represent the average results of all animals within each treatment group (n=3-4).
The following examples were tested in the Blood Lymphocyte Reduction assay (BLR) described hereinabove and the results are shown in Table C for rats.

## CC(C)(CCCc1nc(-c2ccc(CN3CC(C(=O)O)C3)cc2)no1)c1ccc(F)cc1 [Example 128, 1-(4-(5-(4-(4-fluorophenyl)-4-methylpentyl)-1,2,4-oxadiazol-3-yl)benzyl)-3-azetidinecarboxylic acid]
  % REDUCTION IN LYMPHOCYTES AT 4 HR.: 80%

## Cc1cc(-c2noc(/C(F)=C/C3(c4ccc(Cl)cc4)CC3)n2)cc(C)c1OC[C@@H](O)CO [Example 48, (2S)-3-(4-(5-((Z)-2-(1-(4-chlorophenyl)cyclopropyl)-1-fluorovinyl)-1,2,4-oxadiazol-3-yl)-2,6-dimethylphenoxy)-1,2-propanediol]
  % REDUCTION IN LYMPHOCYTES AT 4 HR.: 83%
